These results are taken from ChEMBL document CHEMBL3507680, “University of Dundee, Gates Library screen for HepG2 cell viability”.

Structures are written as SMILES.

The data set in a line: Human HepG2 cell viability assay in 384 well format. The class given is toxicity, cell-based. More on the design: dose 125 nL, time 70.5 hour; cytotoxicity at 70.5 h: concentration not given beside the values. As to conditions: HepG2 cells, read-out: Inhibition.
Take `O=C(c1ccc(F)c(Br)c1)N1CCCN2CCCC2C1` (centres undefined): the cytotoxicity at 70.5 h is -8.34%.
On to `COc1c(C2CCCN2CC(=O)N2CCCCC2)c(C)nn1C` (centres undefined), for which the cytotoxicity at 70.5 h was 4.89%.
In the case of `CC(C)N(C)C(=O)COc1ccc(-c2noc(C3CCCO3)n2)cc1` (centres undefined), the cytotoxicity at 70.5 h was 5.4%.
On to `CC(C)NC(=O)c1cccc(NC(=O)CCCc2nc(C(C)C)no2)c1`, for which the cytotoxicity at 70.5 h came out at 5.5%.
Turning to `CCN(CC(=O)Nc1cc(Cl)ccc1C)C(=O)c1ccc(=O)[nH]n1`, the cytotoxicity at 70.5 h was -2.64%.
With `CC(Nc1cccc2c1OCCO2)C(=O)NC(N)=O` (centres undefined) the figure was -2.31%; with `O=C(Nc1ccc2c(ccn2CCN2CCOCC2)c1)c1ccccn1`, -3.62%; with `CCc1nc(C(=O)N(CC)CC(=O)N(C)C)nn1-c1ccccc1Cl`, -2.5%.
With `COC(=O)CNC(=O)c1scnc1C`, the cytotoxicity at 70.5 h is -1.16%.
Next, `O=C(COC1CCCC1)NCCc1nc(-c2ccccn2)cs1`: -3.01%; `O=C(NCc1ccc(N2CC=CC2)cc1)Nc1nnc(C2CC2)s1`: 22.1%; `CC(C)(C)S(=O)(=O)CCNC(=O)c1ccc2ccccc2c1`: 0.161%.
With `COC(=O)N1CCC(Nc2ccc(Cl)c(C#N)n2)CC1`, the cytotoxicity at 70.5 h is -0.879%.
With `Cc1nn(C)c(Cl)c1C1CCCN1CC(=O)NC1CCCCC1` (centres undefined) the figure was 5.03%.
Next, `Cc1nn(C)c(C)c1C(=O)NCc1cc(N(C)C)nc2ccccc12`: 27.3%; `Cn1cc(CC2CC(=O)N(Cc3ccccc3OC(F)F)C2=O)cn1` (centres undefined): -0.223%.
For the molecule `CN(C(=O)NCC1(CN2CCOCC2)CCCCC1)C1CC1`, the cytotoxicity at 70.5 h was -4.71%.
`CCOC(=O)CNC(=O)c1scnc1C`: the cytotoxicity at 70.5 h is -8.4%.
Turning to `Cc1n[nH]c(C2CN(C(=O)COCC(F)(F)F)CCO2)n1` (centres undefined), the cytotoxicity at 70.5 h was -5.9%.
`CC(CC(=O)N1CCCN(Cc2cscn2)CC1)n1cccc1` (centres undefined): the cytotoxicity at 70.5 h is -6.05%.
On to `Cc1c(C(=O)NC2=NCCS2)cnn1-c1ccc(Br)cc1`, for which the cytotoxicity at 70.5 h was -15%.
With `O=C(c1ccoc1)N(Cc1cccnc1)C1CC1` the figure was -21.3%; with `CC(=O)Nc1nc(CS(=O)(=O)CCCc2ccccc2)cs1`, -9.04%.
`O=C(c1cccnc1)N1CCSCC1`: the cytotoxicity at 70.5 h was -16.5%.
Next, `O=C(NCC(O)COc1ccccc1)Nc1nncs1` (centres undefined): 21.4%; `COc1ccc(OC(F)F)c(NCC(=O)NCC(=O)N2CCCC2)c1`: -7.93%.
As for `COc1ccc(Cl)c(NCC(=O)NCC(=O)N2CCCC2)c1`, the cytotoxicity at 70.5 h is -18.4%.
As for `COc1ccc(NCC(=O)NCC(=O)N2CCCC2)c(C(F)(F)F)c1`, the cytotoxicity at 70.5 h is -2.2%.
`O=C(c1ccoc1)N(Cc1ccncc1)C1CC1`: the cytotoxicity at 70.5 h is -14%.
For the molecule `COc1ccc(CNC(=O)CCc2c(C)noc2C)cc1F`, the cytotoxicity at 70.5 h was -12.8%.
In the case of `N#Cc1ccc(C(=O)N(Cc2ccncc2)C2CC2)cc1`, the cytotoxicity at 70.5 h is -6.43%.
As for `O=C(NCC1CCC1)c1cccc(CN2CCS(=O)(=O)CC2)c1`, the cytotoxicity at 70.5 h was -16.2%.
For `NC(=O)C1CCN(CCc2ccc(NCc3ccsc3)cc2)CC1`, the cytotoxicity at 70.5 h is -11.9%.
As to `CC(C)CC(CCO)CNC(=O)N1CCCC1(C)C` (centres undefined), the cytotoxicity at 70.5 h was found to be 2.81%.
Consider `CCN(C(C)=O)C(c1cccnc1)c1cc(C)cc(C)c1` (centres undefined), for which the cytotoxicity at 70.5 h is 6.16%.
In the case of `Cn1cnnc1CCNC(=O)c1ccccc1OC1CCC1`, the cytotoxicity at 70.5 h was 7.31%.
Regarding `CC(C)CC(CCO)CNC(=O)N1CCC1(C)C` (centres undefined), the cytotoxicity at 70.5 h is -1.15%.
Regarding `CCN(C(c1cccnc1)c1cc(C)cc(C)c1)S(C)(=O)=O` (centres undefined), the cytotoxicity at 70.5 h is -9.96%.
`CC(c1cccc(O)c1)N(C)S(N)(=O)=O` (centres undefined): the cytotoxicity at 70.5 h came to 37%.
In the case of `NC(=O)C1CCN(C(=O)Cc2ccc(Cl)c(Cl)c2)CC1`, the cytotoxicity at 70.5 h was -2.27%.
Regarding `Cc1ccsc1C(=O)NC(C)c1ccc2c(c1)CCC(=O)N2` (centres undefined), the cytotoxicity at 70.5 h was -1.83%.
Take `Cn1cc(NC(=O)NCc2ccoc2)ccc1=O`: the cytotoxicity at 70.5 h is -3.69%.
Take `CN(Cc1ccsc1)C(=O)Nc1cccc(N2CCOC2=O)c1`: the cytotoxicity at 70.5 h worked out at 26.8%.
Next, `Cn1cc(NC(=O)CCc2ccsc2)ccc1=O`: -5.97%; `Cc1ncc(CN(C)C(=O)Nc2cccc(CN3CCOC3=O)c2)s1`: -3.49%; `Cc1ccc(CN(C(=O)C(C)S(C)(=O)=O)C2CC2)cc1C` (centres undefined): -4.96%.
Regarding `CN(C)c1cccc(C(=O)Nc2cn(C)c(=O)n(C)c2=O)c1`, the cytotoxicity at 70.5 h is -3.1%.
On to `Cn1cc(S(=O)(=O)N2CCCC2Cn2ccnc2)cn1` (centres undefined), for which the cytotoxicity at 70.5 h was -3.56%.
Consider `Cc1nn(C(C)C)c(C)c1S(=O)(=O)Nc1ccc(C(=O)O)c(Cl)c1`, for which the cytotoxicity at 70.5 h is -5.52%.
In the case of `Cc1cc2cc(CNC3CCN(CC4CCOC4)CC3)oc2cc1C` (centres undefined), the cytotoxicity at 70.5 h was determined as 10.8%.
Consider `CCn1cc(S(=O)(=O)NC(=O)CCc2c[nH]c3ccccc23)cn1`, for which the cytotoxicity at 70.5 h was -0.706%.
In the case of `COc1ccc(CNC(=O)NCCc2nc(C)c(C)s2)cn1`, the cytotoxicity at 70.5 h is -3.08%.
With `Cn1cc(S(=O)(=O)NC(CO)Cc2c[nH]c3ccccc23)cn1` (centres undefined), the cytotoxicity at 70.5 h is -7.44%.
Next, `Cc1cc(C)cc(C(=O)NCc2ncnn2C)c1`: -5.75%; `CC(NC(=O)c1sccc1C1CC1)c1ccc2c(c1)CC(=O)N2` (centres undefined): -1.98%; `Cc1cc2cc(CNC3CCN(S(C)(=O)=O)CC3)oc2cc1C`: -1.78%.
As for `CCN(Cc1ccoc1)C(=O)NC1CCN(CC2CC2)C1` (centres undefined), the cytotoxicity at 70.5 h is -5.67%.
Turning to `COCCCn1ccc(NCc2cnc(C(C)(C)C)s2)n1`, the cytotoxicity at 70.5 h was 27.4%.
With `Cc1nc(CCNC(Cc2ccncc2)C(F)(F)F)cs1` (centres undefined) the figure was -3.19%.
`Cc1cnc(CCNC(Cc2ccncc2)C(F)(F)F)s1` (centres undefined): the cytotoxicity at 70.5 h is -7.12%.
With `CCOC(=O)C(C)Nc1cccc(COCc2ccco2)c1` (centres undefined), the cytotoxicity at 70.5 h was -1.34%.
With `CC(C)(C)c1nc(CN(CCC2CCCCC2)CC(N)=O)no1` the figure was 22.6%.
For `O=S(=O)(Cc1ccccc1F)Cc1nnnn1C1CC1`, the cytotoxicity at 70.5 h is -14.6%.
For `Cc1ccc(NS(=O)(=O)c2cnn(Cc3ccccc3)c2)c(C(=O)O)c1`, the cytotoxicity at 70.5 h was -21.3%.
Take `CCNC(=O)CCC(=O)N1CCC(Oc2cc(C)ccc2C)CC1`: the cytotoxicity at 70.5 h was -19.2%.
Turning to `O=S(=O)(Cc1c(F)cccc1Cl)Cc1nnnn1C1CC1`, the cytotoxicity at 70.5 h was -13.2%.
For `CC(CC(=O)NCCS(N)(=O)=O)C1CCCCC1` (centres undefined), the cytotoxicity at 70.5 h was -9.82%.
For the molecule `[O-][S+](Cc1c(F)cccc1Cl)Cc1nnnn1C1CC1` (centres undefined), the cytotoxicity at 70.5 h is -14.6%.
For the molecule `CCSc1ccc(C(=O)N2CCCC2C(=O)N2CCOCC2)cn1` (centres undefined), the cytotoxicity at 70.5 h was -12.5%.
Consider `Cn1cc(C(O)CNC(=O)c2ccc(F)cc2Cl)cn1` (centres undefined), for which the cytotoxicity at 70.5 h is -13%.
In the case of `O=C(NCCO)Nc1c(F)cc(F)cc1-c1ccccc1`, the cytotoxicity at 70.5 h was -10.7%.
With `Cc1nc(NC(=O)c2nn(-c3ccc(F)cc3C)cc2O)n[nH]1` the figure was -14.6%; with `CN1CCCN(C(=O)c2cnsn2)c2cc(Cl)ccc21`, -13.8%; with `O=C(CNC(=O)Nc1c(F)cc(F)cc1-c1ccccc1)NC1CC1`, -10.3%.
`CN1CCN(C(=O)c2cnsn2)c2cc(F)ccc21`: the cytotoxicity at 70.5 h came out at 1.4%.
In the case of `COc1ccc(CN2CCN(CCn3ccnc3)CC2)cc1F`, the cytotoxicity at 70.5 h is -13.3%.
Next, `CN(CC1(O)CCCC1)C(=O)c1cccc(Nc2cnccn2)c1`: -19.5%; `CN1CCCN(C(=O)c2cnsn2)c2cc(F)ccc21`: 25.1%; `CN1CCN(c2ccc(F)cc2C(N)=O)CC1`: -12.1%.
For `Cc1ccc(C(=O)NCC(O)c2cnn(C)c2)c(Br)c1` (centres undefined), the cytotoxicity at 70.5 h was -14.7%.
As to `Cc1ccc(F)c2c1N(C(=O)c1cn(CC(=O)N(C)C)nn1)CCC2`, the cytotoxicity at 70.5 h is -10.6%.
Take `CCOc1cncc(N2CCCC2c2nnc3n2CCCCC3)n1` (centres undefined): the cytotoxicity at 70.5 h was -3.47%.
As for `COc1ccc(-n2ccc(C(=O)N(CCN(C)C)C(C)C)n2)cc1`, the cytotoxicity at 70.5 h is -10.3%.
Take `Cc1cc(N(C)C)nc(N2CCN(C(C)c3nc(C)no3)CC2)n1` (centres undefined): the cytotoxicity at 70.5 h was 22.7%.
Regarding `COc1ccccc1C1(CNc2ccc(C(=O)N(C)C)cn2)CC1`, the cytotoxicity at 70.5 h is 25.8%.
As for `CCn1ncc2c1CCCC2NCc1csc(COC)n1` (centres undefined), the cytotoxicity at 70.5 h came out at 21.6%.
Take `CCOc1ccc(N2CCC(C(O)c3ccccc3)CC2)nn1` (centres undefined): the cytotoxicity at 70.5 h amounted to 51.9%.
In the case of `CCN(CC(=O)NC(C)C)C(=O)C(C)(C)c1ccc2c(c1)OCCO2`, the cytotoxicity at 70.5 h is -8.1%.
As for `COc1cc(C)nc(N2CCN(C(C)c3nc(C)no3)CC2)n1` (centres undefined), the cytotoxicity at 70.5 h is -6.32%.
Next, `O=C1OCCN1CCS(=O)(=O)c1cccc(Br)c1`: -2.02%; `O=S(=O)(NCCN1CC=CC1)c1ccc(Cl)cc1`: -6.79%; `O=C1OCCN1CCS(=O)(=O)c1cccc(Cl)c1`: -5.19%.
In the case of `CS(=O)(=O)CCOCCNc1ccc(C#N)cc1F`, the cytotoxicity at 70.5 h is -7.64%.
Consider `CCOc1cccc(NC(=O)c2cscn2)n1`, for which the cytotoxicity at 70.5 h was -9.11%.
For the molecule `CCOc1cccc(COC(=O)c2cscn2)n1`, the cytotoxicity at 70.5 h is -4.87%.
In the case of `COC(=O)c1ccc(N2CCC(c3ccccc3)CC2)nn1`, the cytotoxicity at 70.5 h was -8.39%.
With `O=S(=O)(CCCNCCn1cccn1)c1ccccc1` the figure was -14.5%.
With `COCC(C)NC(=O)CN1CCC(C)CC1` (centres undefined) the figure was -20.8%; with `CN(Cc1cccnc1)C(CO)c1cccc(Br)c1` (centres undefined), -7.61%; with `CCS(=O)(=O)NC(CCSC)C(=O)Nc1ccc(F)cc1` (centres undefined), -85.2%.
Next, `CNS(=O)(=O)c1ccc(CNC(=O)N(C)C(C)COC)cc1` (centres undefined): -97.7%.
As to `Cc1cc(N2CCc3cncnc3C2)n2nc(C(F)(F)F)nc2n1`, the cytotoxicity at 70.5 h was -104%.
Take `O=C(CN(CC(O)c1ccc(F)cc1)C1CC1)NC1CCOCC1` (centres undefined): the cytotoxicity at 70.5 h was -91.7%.
Next, `CNC(=O)CNCc1c[nH]nc1-c1cc2ccccc2o1`: -1.2%.
